# Data from US8455475B2 (Gruenenthal GmbH, priority 2009, dated 2013).
# Columns and labels:
# [1] = molecular target: T1, rat B1R (bradykinin receptor 1) (Rattus norvegicus, UniProt P97583); experiment: FLIPR Ca2+ assay (Fluo-4) on CHO K1 cells stably transfected with the B1R gene of the rat (rB1R cells): % inhibition at 10 μM / IC50, agonist Des-Arg9-bradykinin; format: cell-based; details: CHO-K1, rat B1R
# T1 construct: expressed in transfected cells; host or cells: CHO K1 cells
# T1 sequence (P97583 1-337): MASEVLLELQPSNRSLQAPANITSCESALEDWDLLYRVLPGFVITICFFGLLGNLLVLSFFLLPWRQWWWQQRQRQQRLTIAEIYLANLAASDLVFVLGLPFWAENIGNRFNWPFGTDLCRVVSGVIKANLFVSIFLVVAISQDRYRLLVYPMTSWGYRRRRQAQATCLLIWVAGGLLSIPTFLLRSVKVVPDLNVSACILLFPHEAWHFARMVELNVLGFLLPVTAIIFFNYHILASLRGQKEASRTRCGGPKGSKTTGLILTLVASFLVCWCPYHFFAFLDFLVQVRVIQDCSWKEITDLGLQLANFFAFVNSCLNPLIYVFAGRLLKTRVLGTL
# In short: (§1)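 Using a two-addition FLIPR protocol, compound (10 μM for % values; concentration series for IC50) was preincubated 10–20 min with Fluo-4-loaded B1R-expressing CHO K1 cells before EC80 agonist challenge. Suppression of Ca2+ inflow, read as peak fluorescence, is expressed relative to maximum achievable inhibition; duplicate/triplicate, ≥2 independent experiments.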
# [2] = molecular target: T2, human B1R (bradykinin receptor 1) (Homo sapiens, UniProt P46663); experiment: FLIPR Ca2+ assay (Fluo-4) on CHO K1 cells stably transfected with the human B1R gene (hB1R cells): % inhibition at 10 μM / IC50, agonist Lys-Des-Arg9-bradykinin; format: cell-based; details: CHO-K1, human B1R
# T2 construct: expressed in transfected cells; host or cells: CHO K1 cells
# T2 sequence (P46663 1-353): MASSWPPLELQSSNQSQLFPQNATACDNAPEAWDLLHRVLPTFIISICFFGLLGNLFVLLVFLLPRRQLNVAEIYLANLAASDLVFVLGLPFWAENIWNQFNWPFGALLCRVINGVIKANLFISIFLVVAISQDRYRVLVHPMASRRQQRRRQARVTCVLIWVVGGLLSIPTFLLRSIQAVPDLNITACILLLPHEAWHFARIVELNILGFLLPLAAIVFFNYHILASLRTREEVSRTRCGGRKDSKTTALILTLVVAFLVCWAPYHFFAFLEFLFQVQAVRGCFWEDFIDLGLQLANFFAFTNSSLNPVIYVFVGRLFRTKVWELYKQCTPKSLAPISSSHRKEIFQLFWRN
# In short: as §1
smiles,measurement,setting,value
"O=C(NC1CCc2ccc(C(=O)N3CCC4(CCC(n5ccnc5)CC4)CC3)cc21)c1ccccc1Cl (stereo not shown) [Example H-131, 2-Chloro-N-[6-[9-(1H-imidazol-1-yl)-3-azaspiro[5.5]undecane-3-carbonyl]-2,3-dihydro-1H-inden-1-yl]-benzamide]",inhibition at 10 µM,[1],102%
same,inhibition at 10 µM,[2],74%
"CC1(C)CC(NC(=O)c2ccccc2Cl)c2cc(C(=O)N3CCC4(CCN(c5ccncc5)CC4)C3)ccc21 (stereo not shown) [Example H-132, 2-Chloro-N-[3,3-dimethyl-6-(8-pyridin-4-yl-3,8-diazaspiro[4.5]decane-3-carbonyl)-1,2-dihydro-inden-1-yl]-benzamide]",inhibition at 10 µM,[1],102%
same,inhibition at 10 µM,[2],100%
"O=C(NC1CCc2ccc(C(=O)N3CCC4(CCC(c5ccncc5)CC4)C3)cc21)c1ccccc1Cl (stereo not shown) [Example H-133, 2-Chloro-N-[6-(8-pyridin-4-yl-3-azaspiro[4.5]decane-3-carbonyl)-2,3-dihydro-1H-inden-1-yl]-benzamide]",inhibition at 10 µM,[1],100%
same,inhibition at 10 µM,[2],65%
"Cc1ccc2n1C(=O)N([C@@H]1CCc3ccc(C(=O)N4CCC5(CCN(c6ccncc6)CC5)C4)cc31)C2 [Example H-134, 5-Methyl-2-[(1R)-6-(8-pyridin-4-yl-3,8-diazaspiro[4.5]decane-3-carbonyl)-2,3-dihydro-1H-inden-1-yl]-1,2-dihydro-pyrrolo[2.1-e]imidazol-3-one]",inhibition at 10 µM,[1],103%
same,inhibition at 10 µM,[2],99%
"O=C(N[C@@H]1CCc2ccc(C(=O)N3CCC4(CCC(c5cccnc5)CC4)C3)cc21)c1ccccc1Cl (stereo partly drawn) [Example H-135, 2-Chloro-N-[(1R)-6-(8-pyridin-3-yl-3-azaspiro[4.5]decane-3-carbonyl)-2,3-dihydro-1H-inden-1-yl]-benzamide]",inhibition at 10 µM,[1],101%
same,inhibition at 10 µM,[2],80%
"CN([C@@H]1CCc2ccc(C(=O)N3CCC4(CCN(c5ccncc5)CC4)C3)cc21)S(=O)(=O)c1ccccc1Cl [Example H-136, 2-Chloro-N-methyl-N-[(1R)-6-(8-pyridin-4-yl-3,8-diazaspiro[4.5]decane-3-carbonyl)-2,3-dihydro-1H-inden-1-yl]-benzenesulfonic acid amide]",inhibition at 10 µM,[1],101%
same,inhibition at 10 µM,[2],99%
"O=C(c1ccc2c(c1)[C@H](N(CC(F)(F)F)C(=O)c1ccccc1Cl)CC2)N1CCC2(CCN(c3ccncc3)CC2)C1 [Example H-137, 2-Chloro-N-[(1R)-6-(8-pyridin-4-yl-3,8-diazaspiro[4.5]decane-3-carbonyl)-2,3-dihydro-1H-inden-1-yl]-N-(2,2,2-trifluoro-ethyl)-benzamide]",inhibition at 10 µM,[1],103%
same,inhibition at 10 µM,[2],99%
"O=C(NC1CCc2ccc(C(=O)N3CCCC4(CC3)CCN(c3ccncc3)CC4)cc21)c1ccccc1Cl (stereo not shown) [Example H-138, 2-Chloro-N-[6-(3-pyridin-4-yl-3,10-diazaspiro[5.6]dodecane-10-carbonyl)-2,3-dihydro-1H-inden-1-yl]-benzamide]",inhibition at 10 µM,[1],102%
same,inhibition at 10 µM,[2],100%
"COc1ccc(N2CCC3(CCN(C(=O)c4ccc5c(c4)[C@H](NC(=O)c4ccccc4Cl)CC5)C3)CC2)cc1 [Example H-139, 2-Chloro-N-[(1R)-6-[8-(4-methoxyphenyl)-3,8-diazaspiro[4.5]decane-3-carbonyl]-2,3-dihydro-1H-inden-1-yl]-benzamide]",inhibition at 10 µM,[1],98%
same,inhibition at 10 µM,[2],31%
"N#Cc1ccc(N2CCC3(CCN(C(=O)c4ccc5c(c4)[C@H](NC(=O)c4ccccc4Cl)CC5)C3)CC2)cc1 [Example H-140, 2-Chloro-N-[(1R)-6-[8-(4-cyano-phenyl)-3,8-diazaspiro[4.5]decane-3-carbonyl]-2,3-dihydro-1H-inden-1-yl]-benzamide]",inhibition at 10 µM,[1],100%
same,inhibition at 10 µM,[2],70%
"O=C(N[C@@H]1CCc2ccc(C(=O)N3CCC4(CCN(c5ccncc5)CC4)C3)cc21)c1cc(F)ccc1Cl [Example H-141, 2-Chloro-5-fluoro-N-[(1R)-6-(8-pyridin-4-yl-3,8-diazaspiro[4.5]decane-3-carbonyl)-2,3-dihydro-1H-inden-1-yl]-benzamide]",inhibition at 10 µM,[1],101%
same,inhibition at 10 µM,[2],99%
"O=C(c1ccc2c(c1)[C@H](NS(=O)(=O)c1cc(Cl)ccc1Cl)CC2)N1CCC2(CCN(c3ccncc3)CC2)C1 [Example H-142, 2,5-Dichloro-N-[(1R)-6-(8-pyridin-4-yl-3,8-diazaspiro[4.5]decane-3-carbonyl)-2,3-dihydro-1H-inden-1-yl]-benzenesulfonic acid amide]",inhibition at 10 µM,[1],103%
same,inhibition at 10 µM,[2],98%
"CC(C)CC(=O)N[C@@H]1CCc2ccc(C(=O)N3CCC4(CCN(c5ccncc5)CC4)C3)cc21 [Example H-143, 3-Methyl-N-[(1R)-6-(8-pyridin-4-yl-3,8-diazaspiro[4.5]decane-3-carbonyl)-2,3-dihydro-1H-inden-1-yl]-butyramide]",inhibition at 10 µM,[1],105%
same,inhibition at 10 µM,[2],100%
"COc1ccc(S(=O)(=O)N[C@@H]2CCc3ccc(C(=O)N4CCC5(CCN(c6ccncc6)CC5)C4)cc32)c(C(F)(F)F)c1 [Example H-144, 4-Methoxy-N-[(1R)-6-(8-pyridin-4-yl-3,8-diazaspiro[4.5]decane-3-carbonyl)-2,3-dihydro-1H-inden-1-yl]-2-(trifluoromethyl)-benzenesulfonic acid amide]",inhibition at 10 µM,[1],104%
same,inhibition at 10 µM,[2],99%
"CC(C(=O)N[C@@H]1CCc2ccc(C(=O)N3CCC4(CCN(c5ccncc5)CC4)C3)cc21)c1ccccc1Cl (stereo partly drawn) [Example H-145, 2-(2-Chlorophenyl)-N-[(1R)-6-(8-pyridin-4-yl-3,8-diazaspiro[4.5]decane-3-carbonyl)-2,3-dihydro-H-inden-1-yl]-propionamide]",inhibition at 10 µM,[1],101%
same,inhibition at 10 µM,[2],100%
"CC(C)(C(=O)N[C@@H]1CCc2ccc(C(=O)N3CCC4(CCN(c5ccncc5)CC4)C3)cc21)c1ccccc1Cl [Example H-146, 2-(2-Chlorophenyl)-2-methyl-N-[(1R)-6-(8-pyridin-4-yl-3,8-diazaspiro[4.5]decane-3-carbonyl)-2,3-dihydro-1H-inden-1-yl]-propionamide]",inhibition at 10 µM,[1],102%
same,inhibition at 10 µM,[2],100%
"COc1ccc(S(=O)(=O)N[C@@H]2CCc3ccc(C(=O)N4CCC5(CCN(c6ccncc6)CC5)C4)cc32)c(C)c1 [Example H-147, 4-Methoxy-2-methyl-N-[(1R)-6-(8-pyridin-4-yl-3,8-diazaspiro[4.5]decane-3-carbonyl)-2,3-dihydro-1H-inden-1-yl]-benzenesulfonic acid amide]",inhibition at 10 µM,[1],104%
same,inhibition at 10 µM,[2],100%
"O=C(c1ccc2c(c1)[C@H](NC(=O)C1(c3ccccc3Cl)CC1)CC2)N1CCC2(CCN(c3ccncc3)CC2)C1 [Example H-148, 1-(2-Chlorophenyl)-N-[(1R)-6-(8-pyridin-4-yl-3,8-diazaspiro[4.5]decane-3-carbonyl)-2,3-dihydro-1H-inden-1-yl]-cyclopropane-1-carboxylic acid amide]",inhibition at 10 µM,[1],101%
same,inhibition at 10 µM,[2],100%
"O=C(c1ccc2c(c1)[C@H](NS(=O)(=O)c1c(Cl)cccc1C(F)(F)F)CC2)N1CCC2(CCN(c3ccncc3)CC2)C1 [Example H-149, 2-Chloro-N-[(1R)-6-(8-pyridin-4-yl-3,8-diazaspiro[4.5]decane-3-carbonyl)-2,3-dihydro-1H-inden-1-yl]-6-(trifluoromethyl)-benzenesulfonic acid amide]",inhibition at 10 µM,[1],103%
same,inhibition at 10 µM,[2],100%
"O=C(c1ccc2c(c1)[C@H](NS(=O)(=O)Cc1ccccc1Cl)CC2)N1CCC2(CCN(c3ccncc3)CC2)C1 [Example H-150, 1-(2-Chlorophenyl)-N-[(1R)-6-(8-pyridin-4-yl-3,8-diazaspiro[4.5]decane-3-carbonyl)-2,3-dihydro-1H-inden-1-yl]-methanesulfonic acid amide]",inhibition at 10 µM,[1],100%
same,inhibition at 10 µM,[2],97%
"O=C(Cc1ccccc1Cl)N[C@@H]1CCc2ccc(C(=O)N3CCC4(CCN(c5ccncc5)CC4)C3)cc21 [Example H-151, 2-(2-Chlorophenyl)-N-[(1R)-6-(8-pyridin-4-yl-3,8-diazaspiro[4.5]decane-3-carbonyl)-2,3-dihydro-1H-inden-1-yl]-acetamide]",inhibition at 10 µM,[1],103%
same,inhibition at 10 µM,[2],99%
"O=C(Cc1ccccc1F)N[C@@H]1CCc2ccc(C(=O)N3CCC4(CCN(c5ccncc5)CC4)C3)cc21 [Example H-152, 2-(2-Fluorophenyl)-N-[(1R)-6-(8-pyridin-4-yl-3,8-diazaspiro[4.5]decane-3-carbonyl)-2,3-dihydro-1H-inden-1-yl]-acetamide]",inhibition at 10 µM,[1],101%
same,inhibition at 10 µM,[2],99%
"O=C(N[C@@H]1CCc2ccc(C(=O)N3CCC4(CCN(c5ccncc5)CC4)C3)cc21)c1cccc(F)c1Cl [Example H-153, 2-Chloro-3-fluoro-N-[(1R)-6-(8-pyridin-4-yl-3,8-diazaspiro[4.5]decane-3-carbonyl)-2,3-dihydro-1H-inden-1-yl]-benzamide]",inhibition at 10 µM,[1],105%
same,inhibition at 10 µM,[2],99%
